Measurements published in patent US20100331348A1, “TROPANE DERIVATIVES USEFUL AS PESTICIDES” (SYNGENTA CROP PROTECTION, INC., priority 2007, published 2010).
Read-outs that look alike come from different tables or passages of the source.

Key:
[1] = system: Erysiphe graminis f.sp. tritici; assay: Erysiphe graminis f.sp. tritici (wheat powdery mildew) leaf disk assay; format: in vivo; conditions: Blumeria graminis, foliar, 96 h, preventive, four days after inoculation, read-out: control of fungal infection, Erysiphe graminis fsp. tritici
[2] = system: Puccinia recondita f.sp. tritici; assay: Puccinia recondita f.sp. tritici (wheat brown rust) leaf disk assay; format: in vivo; conditions: foliar, 216 h, preventive, nine days after inoculation, read-out: control of fungal infection, Puccinia recondita f.sp. tritici
Phytophthora infestans = assay: whole plant or invertebrate; format: in vivo; conditions: foliar, 96 h, read-out: control of fungal infection, Phytophthora infestans
Pythium ultimum = Pythium ultimum (Damping off) growth inhibition in potato dextrose broth; format: cell-based; conditions: Globisporangium ultimum, 48 hours, read-out: control of fungal infection, Pythium ultimum
Aedes aegypti = Aedes aegypti (Yellow fever mosquito) larvae test; format: in vivo; conditions: 48 h
Tetranychus urticae = conditions: foliar, 192 h, read-out: control of Tetranychus urticae
Plasmopara viticola = Plasmopara viticola (downy mildew of grapevine) leaf disk assay; format: in vivo; conditions: foliar, 168 h, preventive, seven days after inoculation, read-out: control of fungal infection, Plasmopara viticola
Myzus persicae = Myzus persicae (Green peach aphid) sunflower leaf disc test; conditions: foliar, 144 h, read-out: control of Myzus persicae
Pyricularia oryzae = assay: whole plant or invertebrate; format: in vivo; conditions: foliar, 96 h
Plutella xylostella = Plutella xylostella (Diamond back moth) artificial diet test; conditions: 120 h, read-out: control of Plutella xylostella
Heliothis virescens = Heliothis virescens (Tobacco budworm) egg test on artificial diet; conditions: 96 h, read-out: control of Heliothis virescens
[3] = read-out: control of fungal infection, Pyricularia oryzae (at least 60% list)
[4] = read-out: control of fungal infection, Pyricularia oryzae (at least 80% list)

CCc1ncnc(N2C3CCC2CC(=NOCc2cc(OC)nc(N)n2)C3)c1Cl [Example 5.91]
≥ 80%: pest or weed control at 200 ppm [1] | pest or weed control at 200 ppm [2] | pest or weed control at 200 ppm (Phytophthora infestans)
≥ 60%: inhibition of growth at 200 ppm (Pythium ultimum)

CCc1ncnc(N2C3CCC2CC(=NOCc2csc(C)n2)C3)c1Cl [Example 5.98]
≥ 80%: pest or weed control at 2 ppm (Aedes aegypti) | pest or weed control at 200 ppm [1] | pest or weed control at 200 ppm [2]
≥ 60%: inhibition of growth at 200 ppm (Pythium ultimum)

CCc1ncnc(N2C3CCC2CC(=NOCc2ccc(S(C)(=O)=O)cc2)C3)c1Cl [Example 5.106]
≥ 80%: pest or weed control at 200 ppm [1] | pest or weed control at 200 ppm [2] | pest or weed control at 200 ppm (Phytophthora infestans) | pest or weed control at 200 ppm (Tetranychus urticae)
≥ 60%: inhibition of growth at 200 ppm (Pythium ultimum)

CCc1ncnc(N2C3CCC2CC(=NOCc2cc4c(cc2Cl)OCO4)C3)c1Cl [Example 5.114]
≥ 80%: pest or weed control at 2 ppm (Aedes aegypti) | pest or weed control at 200 ppm [1] | pest or weed control at 200 ppm [2] | pest or weed control at 200 ppm (Plasmopara viticola) | pest or weed control at 200 ppm (Myzus persicae)

c1ccc(CON=C2CC3CCC(C2)N3c2ncnc3sccc23)cc1 [Example 5.138]
≥ 80%: pest or weed control at 2 ppm (Aedes aegypti) | pest or weed control at 200 ppm [1] | pest or weed control at 200 ppm [2] | pest or weed control at 200 ppm (Phytophthora infestans) | pest or weed control at 200 ppm (Plasmopara viticola) | pest or weed control at 200 ppm (Plutella xylostella) | pest or weed control at 200 ppm (Heliothis virescens) | pest or weed control at 200 ppm (Tetranychus urticae)
≥ 60%: pest or weed control at 200 ppm (Pyricularia oryzae; [3]) | inhibition of growth at 200 ppm (Pythium ultimum)

c1ccc(CON=C2CC3CCC(C2)N3c2ncnc3sccc23)nc1 [Example 5.149]
≥ 80%: pest or weed control at 2 ppm (Aedes aegypti) | pest or weed control at 200 ppm [1] | pest or weed control at 200 ppm [2] | pest or weed control at 200 ppm (Pyricularia oryzae; [4])
≥ 60%: inhibition of growth at 200 ppm (Pythium ultimum)

Clc1ccc(CON=C2CC3CCC(C2)N3c2ncnc3sccc23)c(Cl)c1 [Example 5.152]
≥ 60%: pest or weed control at 200 ppm (Pyricularia oryzae; [3])
≥ 80%: pest or weed control at 2 ppm (Aedes aegypti) | pest or weed control at 200 ppm [1] | pest or weed control at 200 ppm [2] | pest or weed control at 200 ppm (Myzus persicae) | pest or weed control at 200 ppm (Plutella xylostella) | pest or weed control at 200 ppm (Heliothis virescens)

COc1ccc(CON=C2CC3CCC(C2)N3c2ncnc3sccc23)cc1 [Example 5.165]
≥ 80%: pest or weed control at 200 ppm [1] | pest or weed control at 200 ppm (Phytophthora infestans)
≥ 60%: inhibition of growth at 200 ppm (Pythium ultimum)

Fc1ccc(CON=C2CC3CCC(C2)N3c2ncnc3sccc23)cc1 [Example 5.166]
≥ 80%: pest or weed control at 2 ppm (Aedes aegypti) | pest or weed control at 200 ppm [1] | pest or weed control at 200 ppm [2] | pest or weed control at 200 ppm (Pyricularia oryzae; [4]) | pest or weed control at 200 ppm (Phytophthora infestans) | pest or weed control at 200 ppm (Plasmopara viticola) | pest or weed control at 200 ppm (Myzus persicae) | pest or weed control at 200 ppm (Plutella xylostella)
≥ 60%: pest or weed control at 200 ppm (Pyricularia oryzae; [3])

Cc1ccc(CON=C2CC3CCC(C2)N3c2ncnc3sccc23)c(C)c1 [Example 5.190]
≥ 80%: pest or weed control at 2 ppm (Aedes aegypti) | pest or weed control at 200 ppm [1] | pest or weed control at 200 ppm [2] | pest or weed control at 200 ppm (Phytophthora infestans) | pest or weed control at 200 ppm (Plasmopara viticola) | pest or weed control at 200 ppm (Myzus persicae) | pest or weed control at 200 ppm (Plutella xylostella)

Fc1cc(F)cc(CON=C2CC3CCC(C2)N3c2ncnc3sccc23)c1 [Example 5.205]
≥ 60%: inhibition of growth at 200 ppm (Pythium ultimum)
≥ 80%: pest or weed control at 200 ppm [1] | pest or weed control at 200 ppm [2] | pest or weed control at 200 ppm (Pyricularia oryzae; [4]) | pest or weed control at 200 ppm (Phytophthora infestans)

Fc1cccc(CON=C2CC3CCC(C2)N3c2ncnc3sccc23)c1F [Example 5.219]
≥ 80%: pest or weed control at 2 ppm (Aedes aegypti) | pest or weed control at 200 ppm [1] | pest or weed control at 200 ppm [2] | pest or weed control at 200 ppm (Pyricularia oryzae; [4]) | pest or weed control at 200 ppm (Phytophthora infestans) | pest or weed control at 200 ppm (Plutella xylostella)
≥ 60%: pest or weed control at 200 ppm (Pyricularia oryzae; [3]) | inhibition of growth at 200 ppm (Pythium ultimum)

Cc1nc(CON=C2CC3CCC(C2)N3c2ncnc3sccc23)no1 [Example 5.245]
≥ 80%: pest or weed control at 2 ppm (Aedes aegypti) | pest or weed control at 200 ppm [1] | pest or weed control at 200 ppm [2] | pest or weed control at 200 ppm (Pyricularia oryzae; [4]) | pest or weed control at 200 ppm (Myzus persicae) | pest or weed control at 200 ppm (Plutella xylostella) | pest or weed control at 200 ppm (Heliothis virescens)

CS(=O)(=O)c1ccc(CON=C2CC3CCC(C2)N3c2ncnc3sccc23)cc1 [Example 5.248]
≥ 60%: inhibition of growth at 200 ppm (Pythium ultimum)
≥ 80%: pest or weed control at 200 ppm [1] | pest or weed control at 200 ppm [2] | pest or weed control at 200 ppm (Phytophthora infestans) | pest or weed control at 200 ppm (Tetranychus urticae)

Cc1csc(CC2CC3CCC(C2)N3c2ncnc3sccc23)n1 (stereo not drawn) [Example 7.16]
≥ 60%: inhibition of growth at 200 ppm (Pythium ultimum)
132 °C: melting point
≥ 80%: pest or weed control at 200 ppm [2]
